# Earlier results in patent US20260102372A1, “NEW FORMULATIONS FOR MENTAL DISORDERS OR MENTAL ENHANCEMENT” (TACTOGEN INC, priority 2023, published 2026).
# What was measured:
# PTSD = conditions: MDMA arm
# [1] = pooled Phase 2 trials
# [2] = not given; remark: listed apart in the source
# [3] = molecular target: cytochrome p450 isozyme 2D6 (CYP2D6) (Homo sapiens, UniProt P10635)
# [4] = nonhuman animals
# Sequence of cytochrome p450 isozyme 2D6 (CYP2D6) (P10635 whole entry): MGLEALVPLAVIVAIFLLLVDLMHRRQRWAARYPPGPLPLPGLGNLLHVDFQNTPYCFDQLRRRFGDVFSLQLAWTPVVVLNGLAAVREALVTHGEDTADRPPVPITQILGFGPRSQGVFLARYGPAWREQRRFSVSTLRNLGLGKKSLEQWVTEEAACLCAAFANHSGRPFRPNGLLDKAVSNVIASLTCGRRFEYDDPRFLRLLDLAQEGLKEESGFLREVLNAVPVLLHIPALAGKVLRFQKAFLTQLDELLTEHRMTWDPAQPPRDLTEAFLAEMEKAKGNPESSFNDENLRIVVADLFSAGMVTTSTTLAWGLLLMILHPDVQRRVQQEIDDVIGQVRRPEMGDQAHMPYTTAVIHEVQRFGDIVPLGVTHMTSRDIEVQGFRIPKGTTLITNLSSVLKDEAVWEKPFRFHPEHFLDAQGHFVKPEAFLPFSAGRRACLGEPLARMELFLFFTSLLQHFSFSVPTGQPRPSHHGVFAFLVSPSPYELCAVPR
smiles,measurement,setting,value
"CNC(C)Cc1ccc2c(c1)OCO2 (stereo not shown) [MDMA, [1-(2H-1,3-benzodioxol-5-yl)propan-2-yl](methyl)amine]",participants with sufficient improvement that they were no longer diagnosable with PTSD,PTSD; first of two Phase 3 trials (Mitchell et al. 2021),one-third
same,participants improved,"PTSD; first of two Phase 3 trials, MDMA-assisted therapy for PTSD (Mitchell et al. 2021)",88%
same,duration of acute psychological and emotional effects (average),"after 75 or 125 mg MDMA, standard deviation 1.3 hours (Vizeli & Liechti 2017)",4.2 hours
same,time by which acute emotional effects have largely resolved,after administration of MDMA,≤ 8 h
same,nausea occurred in participants,[1]; 29 of 72 participants (Mithoefer et al. 2019),40.3%
same,anxiety occurred in participants,[1]; 52 of 72 participants (Mithoefer et al. 2019),72.2%
same,half-life in plasma,[2],seven to nine
same,CYP2D6 interaction,[3],both a substrate and inhibitor
same,"markers of serotonergic functioning (brain serotonin, tryptophan hydroxylase, serotonin transporter density)",[4],decreases
same,measures of oxidative stress,[4],increases
